Data reported in US12053480B2, “Methods and pharmaceutical compositions for treating peripheral demyelinating diseases” (INSERM (INSTITUT NATIONAL DE LA SANTE ET DE LA RECHERCHE …, priority 2015, dated 2024).
“Also recorded” adds a separate entry of the source. Like-named read-outs stand apart in the source and are kept apart here.

Experiments:
Format in all cases: in vivo, rat
[1] = test system: CMT1A rats; assay: Sciatic nerve morphometry (toluidine blue, electron microscopy) in CMT1A rats
Description: Sciatic nerves of 20 and 28 weeks old diabetic mice or 16 and 24 weeks old CMT1A rats treated with TRO19622 drug or PBS were fixed for 20 min in situ with 4% PFA and 2.5% glutaraldehyde, in 0.1 M phosphate buffer (pH7.3). Then nerves were removed and postfixed overnight in the same buffer.
After washing 30 min in 0.2M PBS phosphate buffer, the nerves were incubated with 2% osmic acid in 0.1M phosphate buffer for 90 minutes at room temperature. Then, samples were washed in 0.2M PBS phosphate buffer, dehydrated using ethanol gradient solutions and embedded in epoxy resin. For electron microscopy of sciatic nerves, ultrathin (70 nm) cross-sections were cut and stained with 1% uranylacetate solution and lead-citrate and analyzed using a HITACHI H7100 electron microscope at the ‘Centre des Resources en Imagerie Cellulaire’ (CRIC) (for further details see Cotter et al., 2010^9). Semi-thin cross-sections (0.7 μm) were cut using a microtome (Leica, RM 2155) with a diamond knife (Histo HI 4317, Diatome). Sections were stained with blue of toluidine and observed using light microscope. G-ratio was determined using GRatioCalculator plugin of Image J. At less 200 fibers per animal were analysed.
While demyelinating diabetes peripheral neuropathy is a commonly acquired disease, demyelination is also the characteristic feature of a large number of inherited diseases called Charcot-Marie-Tooth diseases (CMT). We therefore sought to test whether the inhibition of VDAC1 function could prevent demyelination in these diseases. We choose CMT1A rat strain^42 as this is arguably the most representative animal model of Charcot-Marie-Tooth disease, mimicking CMT1A the most prevalent CMT in humans^10. Twelve weeks old CMT1A rats were daily treated with TRO19622 for 15 or 30 days and one day or two months after treatment, we analyzed MAPK demyelination pathways by western blot. […] However, these effects disappeared two months after treatment. Then we analyzed phospho-c-jun activation in mSC using immunohistochemistry. […] Next, we measured Schwann cell demyelination and g-ratio by toluidine blue staining on semi-thin sciatic nerve sections and on thin sections using electron microscopy.

[2] = test system: CMT1A rats; assay: Behavioral motor tests (rotarod, grip, CatWalk) in CMT1A rats
Description: […] Mice and rats were first given a pretraining trial of two days to familiarize them with the rotating rod. For control and diabetic mice latency to fall was measured at fixed speed 10 rpm over a 180 s time as a cut-off. No acceleration testing was performed for mice. For control and CMT1A rats latency to fall and maximum rpm (revolutions per minute) were measured at accelerated speed. […] Each animal underwent three trials a day. For each day, data were averaged for each animal (values from the three trials), normalized according to animal weight and then averaged for each treated group.
Detailed analysis of gait was performed on free-walking 16 weeks old diabetic mice and 12 weeks old CMT1A rats using the CatWalk method (CatWalk XT 10.5, Noldus Information Technology) during PBS or TRO19622 treatment. The runs were analyzed when the speed of crossing was constant and homogenous. At least three compliant runs were analyzed for each animal Data were averaged per animal, normalized according to animal weight and then per treated group. The resulting data provided quantitative parameters and qualitative walking patterns.
Neuromuscular strength of diabetic mice and CMT rats was assessed in standardized grip strength tests for front, hind and all limbs. All limbs grip strength was measured by rat supporting on the metal grid and pulling the animal's tail toward a horizontal grid connected to a gauge. Front and hind limb grip strength were measured by supporting the forelimbs or hindlimbs respectively and pulling the animal's tail toward a horizontal T-bar connected to a gauge. The maximum force (measured in newtons) exerted onto the T-bar or grid before the animals lost grip was recorded, and the mean of 3 repeated measurements was calculated. All data were normalized according to animal weight.
Finally, we studied the neuromuscular performance of CMT1A and control rats using behavioral motor tests. […] Moreover, using catwalk test we observed a decrease of paw time stand (FIG. 2B), hind paw distance (FIG. 2C) and an increase of paw print area (FIG. 2D). […] Therefore inhibiting mitochondrial calcium release through VDAC1 opens a major avenue toward the treatment of human CMT1A.

[3] = test system: CMT1A rats; assay: Electrophysiology (CMAP, NCV) in CMT1A rats; conditions: CMT1A rats treated daily for one month
Description: Standard electroneurography was performed before, during and after TRO 19622 drug treatment on CMT1A rats and diabetic mice that were anesthetized with 3% isoflurane. A pair of steel needle electrodes (AD Instruments, MLA1302, Oxford, UK) was placed subcutaneously along the nerve at sciatic notch (proximal stimulation). A second pair of electrodes was placed along the tibial nerve above the ankle (distal stimulation). Supramaximal square wave pulses lasting 10 ms and 1 mA for mice and 3.6 mA for rats were delivered using a PowerLab 26T (AD Instruments, Oxford, UK). Compound muscle action potential (CMAP) was recorded from the intrinsic foot muscles using steel electrodes. Both amplitudes and latencies of CMAP were determined. The distance between the two sites of stimulation was measured alongside the skin surface with fully extended legs, and nerve conduction velocities (NCVs) were calculated automatically from sciatic nerve latency measurements (for further details Fledrich et al., 2014^10).

[4] = CMT1A rats treated for one month

CC(C)CCC[C@@H](C)[C@H]1CC[C@H]2[C@@H]3CCC4=C/C(=N\O)CC[C@]4(C)[C@H]3CC[C@]12C [TRO19622, (NZ)—N-[(8S,9S,10R,13R,14S,17R)-10,13-dimethyl-17-[(2R)-6-methylheptan-2-yl]-1,2,6,7,8,9,11,12,14,15,16,17-dodecahydrocyclopenta[a]phenanthren-3-ylidene]hydroxylamine]
g-ratio of myelinated fibers [1]: significant increase
number and diameter of axons in the nerve [1]: increased
number of demyelinated fibers [1]: reduction
g-ratio of myelinated fibers ([1]; listed as TRO16922): restored a correct g-ratio
number and diameter of axons in the nerve ([1]; listed as TRO16922): rescued axonal loss
grip strength [2, 4]: significant increase
latency on accelerating rotarod [2, 4]: significant increase
effects on demyelination, g-ratio and behavioral motor tests after stopping the treatment ([2]; CMT1A rats, 2 months after stopping the treatment): disappeared; also recorded: did not last
hind paw distance ([2]; CMT1A rats, catwalk test): decrease
paw print area ([2]; CMT1A rats, catwalk test): increase
paw time stand ([2]; CMT1A rats, catwalk test): decrease
CMAP amplitude [3]: significant increase
nerve conduction velocity [3]: significant increase
nerve conduction velocity ([3]; listed as TRO16922): largely improved
